Experiments:
any other known protease = details: Meng et al., 1999; cited from earlier work
NF-κB = assay: NF-κB/Luc 293 luciferase reporter assay with TNF-α stimulation; type: cell-based, human; details: NF-κB/Luc 293 cells, pretreatment before TNF-α
Excerpt: (§1) Furthermore, a stable HEK293 clone (NF-κB/Luc 293) was generated carrying a luciferase reporter gene under the regulation of 5×NF-κB binding sites.

[1] = system: Mycobacterium tuberculosis; assay: Survival assays of Mycobacterium tuberculosis on agar plates after nitrite exposure; type: cell-based; details: plating on agar after 6 days of exposure; present-tense example without data
proteasome = proteasome (Homo sapiens, UniProt Q99436); assay: Trypsin-like inhibitory activity of the proteasome (summary); type: biochemical; details: proteasome source not stated
[2] = target: T1, proteasome chymotrypsin-like activity in Packed Whole Blood Lysate (Mus musculus, UniProt O55234); assay: Whole blood proteasome activity (PWBL assay) after dosing of mice; type: in vivo; details: male Swiss-Webster mice
T1 construct: The supernatant (Packed Whole Blood Lysate, PWBL) was transferred to a fresh tube; from tissue; host or cells: packed whole blood cells of Swiss-Webster mice, hypotonic lysate
T1 sequence (O55234 60-264): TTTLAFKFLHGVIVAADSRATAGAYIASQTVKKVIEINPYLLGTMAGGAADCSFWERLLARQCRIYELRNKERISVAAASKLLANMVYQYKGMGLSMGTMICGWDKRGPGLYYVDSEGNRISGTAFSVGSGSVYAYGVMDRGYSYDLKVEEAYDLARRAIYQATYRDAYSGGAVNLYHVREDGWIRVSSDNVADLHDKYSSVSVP
Method: In brief, frozen whole blood samples were thawed on ice for one hour, and resuspended in 700 μL of ice cold 5 mM EDTA, pH 8.0 in order to lyse the cells by hypotonic shock. This represents approximately 2-3 times the volume of the packed whole blood cells. Lysis was allowed to proceed for one hour, and the cellular debris was removed by centrifugation at 14,000×g for 10 minutes. The supernatant (Packed Whole Blood Lysate, PWBL) was transferred to a fresh tube, and the pellet discarded. Protein concentration of the PWBL was determined by BCA assay (Pierce) using BSA as a standard.
Proteasome activity was determined by measuring the hydrolysis of a fluorogenic substrate specific for the chymotrypsin-like activity of proteasomes (suc-LLVY-AMC, Bachem Cat. 1-1395). […] The reactions were initiated by the addition of 10 μL of 0.4 mM suc-LLVY-AMC (prepared by diluting a 10 mM solution of the peptide in DMSO 1:25 with assay buffer), and incubated in a fluorometer (Labsystems Fluoroskan) at 37° C. Hydrolysis of the substrate results in the release of free AMC, which was measured fluorometrically by using λex=390 nm and λem=460 nm. The rate of hydrolysis in this system is linear for at least one hour. The hydrolysis rate of each sample is then normalized to relative fluorescent units per milligram of protein (RFU/mg).
The vehicle control consisted of 2% DMSO in 10% solutol. […]

IκBα, p21 and p27 = assay: Western blot analyses in NF-κB/Luc 293 cells; type: cell-based, human
Excerpt: as §1

[3] = Maximum tolerated dose determination, intravenous, female BALB/c mice; type: in vivo
Excerpt: In vivo studies were designed to determine the MTD of Salinosporamide A when administered intravenously to female BALB/c mice.

[4] = system: NF-κB/IκB signaling pathway; assay: TNF-α stimulated HEK293 cells, IκBα phosphorylation and degradation; type: cell-based, human; details: HEK293 cells pre-treated 1 hour, then TNF-α stimulation
Excerpt: Treatment of HEK293 cells (human embryonic kidney) with Tumor Necrosis Factor-alpha (TNF-α) induces phosphorylation and proteasome-mediated degradation of IκBα followed by NF-κB activation.

[5] = NF-κB/Luc 293 cells, Western blot

Compound	inhibitory activity towards other proteases (any other known protease)	luciferase activity (NF-κB)	antimycobacterial effect of nitrite [1]	trypsin-like inhibitory activity (proteasome)	proteasomal activity in PWBL ([2]; blood 90 min after administration, dose dependent (FIG. 4))	activity upon oral administration (PWBL proteasome inhibition) ([2]; oral dosing)	levels of cell cycle regulatory proteins p21 and p27 (IκBα, p21 and p27)	degradation of total IκBα (IκBα, p21 and p27; [5])	phosphorylated-IκBα level (IκBα, p21 and p27; [5])	EC50 (In vitro cytotoxicity)	behavioral changes ([3]; during the course of the experiment)	well tolerated dose ([3]; i.v. daily for five consecutive days (qdx5))	tolerated dose ([3]; single intravenous dose (qdx1))	phosphorylated IκBα level [4]
CC[C@H](C)[C@H](NC(=O)[C@H]([C@@H](C)CC)N(C)C(C)=O)C(=O)N[C@H](C(=O)N[C@@H](CC(C)C)C(=O)[C@@]1(C)CO1)[C@@H](C)O [Epoxomicin]	no inhibitory activity towards any other known protease	–	–	–	–	–	–	–	–	–	–	–	–	–
C[C@@]12OC(=O)[C@]1([C@@H](O)[C@@H]1C=CCCC1)NC(=O)[C@@H]2CCCl [Salinosporamide A]	–	decreases activity	able to augment the antimycobacterial effect of nitrite	~10 nM	profound decrease in proteasomal activity in PWBL	active upon oral administration	increase the levels	decreased the degradation of total IκBα	promoted the accumulation of phosphorylated-IκBα	10 to 200 nM	No behavioral changes were noted	up to 0.1 mg/kg	up to 0.25 mg/kg	promoted the accumulation of phosphorylated IκBα

Reference: US20120264678A1, “METHODS OF USING [3.2.0] HETEROCYCLIC COMPOUNDS AND ANALOGS THEREOF FOR TREATING INFECTIOUS DISEASES” (priority 2007, published 2012)
